The target in the assay is T1, RAMP3-CLR (AM2 receptor) (Homo sapiens, UniProt O60896+Q16602).
T1 construct: FLAG; expressed in transfected cells; host or cells: HEK-293 or HEK-293S cells, transient transfection, 1:1 RAMP:CLR
Put plainly: S. cerevisiae growth assay, GPA1/Gαq chimera, RAMP3 + CLR. Format: cell-based. Particulars: percentage of yeast strain MMY11 (lacking GPA1); 24-h; mean ± S.E., n = 6. The method, then:
FIGURE 7. […] Reporter gene activity was determined following 24-h stimulation. All data are expressed as percentage of the maximum response observed in yeast strain MMY11 and are means ± S.E. of n individual data sets. D, Bar chart showing the efficacy of each ligand for each RAMP-CLR combination at the Gαq chimera determined via application of the operational model of receptor agonism (Ref. [34] and Table 1). Data were determined as statistically different from the cognate ligand for each receptor (***, p < 0.001; ****, p < 0.0001) using one-way ANOVA with Bonferroni's post-test. E, signaling bias plots were calculated as ΔΔ(τ/Ka) values on a logarithmic scale for each ligand and for each chimera G protein for the three individual RAMP-CLR complexes.
General yeast procedures were performed as described previously ([22], [24]). […] Receptor signaling was measured using the yeast growth assay as described previously ([24]). […] A fluorescein signal was detected as an increase in fluorescence (excitation wavelength = 485 nm, emission wavelength = 535 nm) as a measure of growth. Different concentrations of ligand (0.01 nM–100 μM) were assayed using 96-well plates, and fluorescence was detected using a Tecan Infinite M200 microplate reader (Tecan Ultra Evolution, Reading, UK) or a Mithras LB 940 microplate reader (Berthold Technologies, Harpenden, UK) for 20 h. […]

T1 sequence (Q16602 23-461): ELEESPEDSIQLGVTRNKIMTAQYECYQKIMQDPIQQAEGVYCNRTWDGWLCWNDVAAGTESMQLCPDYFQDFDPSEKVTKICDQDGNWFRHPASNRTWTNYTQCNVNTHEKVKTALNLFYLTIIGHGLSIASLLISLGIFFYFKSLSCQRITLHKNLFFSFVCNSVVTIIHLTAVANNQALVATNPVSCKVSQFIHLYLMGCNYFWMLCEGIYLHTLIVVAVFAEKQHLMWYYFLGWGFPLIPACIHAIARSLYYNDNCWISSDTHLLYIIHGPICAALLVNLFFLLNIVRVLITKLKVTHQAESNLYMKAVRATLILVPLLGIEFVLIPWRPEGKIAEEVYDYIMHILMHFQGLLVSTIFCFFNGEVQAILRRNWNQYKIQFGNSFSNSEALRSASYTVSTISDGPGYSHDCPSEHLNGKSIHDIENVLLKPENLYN
T1 sequence (O60896 24-148): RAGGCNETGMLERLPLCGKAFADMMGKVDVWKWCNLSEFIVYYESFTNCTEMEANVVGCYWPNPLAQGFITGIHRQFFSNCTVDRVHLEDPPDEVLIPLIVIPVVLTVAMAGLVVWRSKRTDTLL

As for `CC[C@H](C)[C@H](NC(=O)[C@H](CCC(N)=O)NC(=O)[C@H](Cc1c[nH]cn1)NC(=O)[C@H](C)NC(=O)[C@H](CC(C)C)NC(=O)[C@H](CCCCN)NC(=O)[C@H](CCC(N)=O)NC(=O)[C@@H](NC(=O)[C@@H](NC(=O)[C@@H]1CSSC[C@H](NC(=O)CNC(=O)[C@H](Cc2ccccc2)NC(=O)[C@H](CO)NC(=O)[C@H](CCCNC(=N)N)NC(=O)[C@H](CC(C)C)NC(=O)CNC(=O)[C@H](CCC(N)=O)NC(=O)[C@H](Cc2ccccc2)NC(=O)[C@H](CC(N)=O)NC(=O)[C@H](CC(N)=O)NC(=O)[C@H](CCSC)NC(=O)[C@H](CO)NC(=O)[C@H](CCC(N)=O)NC(=O)[C@H](CCCNC(=N)N)NC(=O)[C@@H](N)Cc2ccc(O)cc2)C(=O)N[C@@H](CCCNC(=N)N)C(=O)N[C@@H](Cc2ccccc2)C(=O)NCC(=O)N[C@@H]([C@@H](C)O)C(=O)N1)[C@@H](C)O)C(C)C)C(=O)N[C@@H](Cc1ccc(O)cc1)C(=O)N[C@@H](CCC(N)=O)C(=O)N[C@@H](Cc1ccccc1)C(=O)N[C@H](C(=O)N[C@@H](CC(=O)O)C(=O)N[C@@H](CCCCN)C(=O)N[C@@H](CC(=O)O)C(=O)N[C@@H](CCCCN)C(=O)N[C@@H](CC(=O)O)C(=O)N[C@@H](CC(N)=O)C(=O)N[C@H](C(=O)N[C@@H](C)C(=O)N1CCC[C@H]1C(=O)N[C@@H](CCCNC(=N)N)C(=O)N[C@@H](CO)C(=O)N[C@@H](CCCCN)C(=O)N[C@H](C(=O)N[C@@H](CO)C(=O)N1CCC[C@H]1C(=O)N[C@@H](CCC(N)=O)C(=O)NCC(=O)N[C@@H](Cc1ccc(O)cc1)C(N)=O)[C@@H](C)CC)C(C)C)[C@@H](C)O` [AM, adrenomedullin], the Emax is 25.6 ± 2%.

The values above are taken from paper PMC5063977 (The Journal of Biological Chemistry, 2016).
